Measurements reported in patent publication US10206394B2, “Herbicidal compounds” (Syngenta Participations AG, priority 2014, dated 2019).
Like-named read-outs stand apart in the source and are kept apart here.

Experiments:
Assay in all cases: Glasshouse assay for herbicidal activity (pre- and post-emergence), percentage phytotoxicity
Type in all cases: in vivo
Avena fatua (AVEFA) = settings: Avena fatua
Protocol: (§1) Test—Glasshouse Assay for Herbicidal Activity
(§2) Seeds of a variety of monocotyledonous and dicotyledonous test plants are sown in standard soil in pots. The plants are cultivated for one day (for pre-emergence (PRE)) or for about 12 days (for post-emergence (POST)) under controlled conditions in a glasshouse (warm climate species at 24/18° C., cool climate species at 20/16° C., both at day/night; 16 hours light; 65% humidity).
(§3) The test plants are then grown on, in a glasshouse (greenhouse) under controlled conditions (warm climate species at 24/18° C., cool climate species at 20/16° C., both at day/night; 16 hours light; 65% humidity) and are watered twice daily. 15 days after application of the test herbicide (15 DAA) (for post-emergence), and 20 days after application of the test herbicide (20 DAA) (for pre-emergence), the test plants are evaluated visually, and an assessed percentage phytotoxicity score is given for each herbicidal application on each plant species (with 100%=total damage to plant; 0%=no damage to plant).
(§4) The plant species tested are as follows: Alopecurus myosuroides (ALOMY), Avena fatua (AVEFA), Lolium perenne (LOLPE), Echinochloa crus-galli (ECHCG).

[1] = test system: Alopecurus myosuroides (ALOMY); settings: Alopecurus myosuroides
Protocol: as §1, §2, §3, §4

[2] = test system: Echinochloa crus-galli (ECHCG); settings: Echinochloa crus-galli
Protocol: as §1, §2, §3, §4

Lolium perenne (LOLPE) = settings: Lolium perenne
Protocol: as §1, §2, §3, §4

[3] = post-emergence, 360 h, Rate 250 g/ha, post-emergence, assessed visually 15 DAA, 100%=total damage, 0%=no damage, read-out: Post-emergence herbicidal activity (percentage phytotoxicity) AVEFA POST
[4] = pre-emergence, 480 h, Rate 250 g/ha, pre-emergence, assessed visually 20 DAA, 100%=total damage, 0%=no damage, read-out: Pre-emergence herbicidal activity (percentage phytotoxicity) AVEFA PRE
[5] = post-emergence, 360 h, Rate 250 g/ha, post-emergence, assessed visually 15 DAA, 100%=total damage, 0%=no damage, read-out: Post-emergence herbicidal activity (percentage phytotoxicity) ALOMY POST
[6] = pre-emergence, 480 h, Rate 250 g/ha, pre-emergence, assessed visually 20 DAA, 100%=total damage, 0%=no damage, read-out: Pre-emergence herbicidal activity (percentage phytotoxicity) ALOMY PRE
[7] = post-emergence, 360 h, Rate 250 g/ha, post-emergence, assessed visually 15 DAA, 100%=total damage, 0%=no damage, read-out: Post-emergence herbicidal activity (percentage phytotoxicity) ECHCG POST
[8] = pre-emergence, 480 h, Rate 250 g/ha, pre-emergence, assessed visually 20 DAA, 100%=total damage, 0%=no damage, read-out: Pre-emergence herbicidal activity (percentage phytotoxicity) ECHCG PRE
[9] = post-emergence, 360 h, Rate 250 g/ha, post-emergence, assessed visually 15 DAA, 100%=total damage, 0%=no damage, read-out: Post-emergence herbicidal activity (percentage phytotoxicity) LOLPE POST
[10] = pre-emergence, 480 h, Rate 250 g/ha, pre-emergence, assessed visually 20 DAA, 100%=total damage, 0%=no damage, read-out: Pre-emergence herbicidal activity (percentage phytotoxicity) LOLPE PRE
[11] = post-emergence, 360 h, POST-emergence, rate 250 g/ha, visual score 15 DAA (100%=total damage, 0%=no damage), read-out: Post-emergence herbicidal activity (percentage phytotoxicity) AVEFA POST
[12] = pre-emergence, 480 h, PRE-emergence, rate 250 g/ha, visual score 20 DAA (100%=total damage, 0%=no damage), read-out: Pre-emergence herbicidal activity (percentage phytotoxicity) AVEFA PRE
[13] = post-emergence, 360 h, POST-emergence, rate 250 g/ha, visual score 15 DAA (100%=total damage, 0%=no damage), read-out: Post-emergence herbicidal activity (percentage phytotoxicity) ALOMY POST
[14] = pre-emergence, 480 h, PRE-emergence, rate 250 g/ha, visual score 20 DAA (100%=total damage, 0%=no damage), read-out: Pre-emergence herbicidal activity (percentage phytotoxicity) ALOMY PRE
[15] = post-emergence, 360 h, POST-emergence, rate 250 g/ha, visual score 15 DAA (100%=total damage, 0%=no damage), read-out: Post-emergence herbicidal activity (percentage phytotoxicity) ECHCG POST
[16] = pre-emergence, 480 h, PRE-emergence, rate 250 g/ha, visual score 20 DAA (100%=total damage, 0%=no damage), read-out: Pre-emergence herbicidal activity (percentage phytotoxicity) ECHCG PRE
[17] = post-emergence, 360 h, POST-emergence, rate 250 g/ha, visual score 15 DAA (100%=total damage, 0%=no damage), read-out: Post-emergence herbicidal activity (percentage phytotoxicity) LOLPE POST
[18] = pre-emergence, 480 h, PRE-emergence, rate 250 g/ha, visual score 20 DAA (100%=total damage, 0%=no damage), read-out: Pre-emergence herbicidal activity (percentage phytotoxicity) LOLPE PRE
[19] = post-emergence, 360 h, 250 g/ha, post-emergence, 15 DAA, visual assessment (100%=total damage, 0%=no damage), read-out: Post-emergence herbicidal activity (percentage phytotoxicity) AVEFA POST
[20] = pre-emergence, 480 h, 250 g/ha, pre-emergence, 20 DAA, visual assessment (100%=total damage, 0%=no damage), read-out: Pre-emergence herbicidal activity (percentage phytotoxicity) AVEFA PRE
[21] = post-emergence, 360 h, 250 g/ha, post-emergence, 15 DAA, visual assessment (100%=total damage, 0%=no damage), read-out: Post-emergence herbicidal activity (percentage phytotoxicity) ALOMY POST
[22] = pre-emergence, 480 h, 250 g/ha, pre-emergence, 20 DAA, visual assessment (100%=total damage, 0%=no damage), read-out: Pre-emergence herbicidal activity (percentage phytotoxicity) ALOMY PRE
[23] = post-emergence, 360 h, 250 g/ha, post-emergence, 15 DAA, visual assessment (100%=total damage, 0%=no damage), read-out: Post-emergence herbicidal activity (percentage phytotoxicity) ECHCG POST
[24] = pre-emergence, 480 h, 250 g/ha, pre-emergence, 20 DAA, visual assessment (100%=total damage, 0%=no damage), read-out: Pre-emergence herbicidal activity (percentage phytotoxicity) ECHCG PRE
[25] = post-emergence, 360 h, 250 g/ha, post-emergence, 15 DAA, visual assessment (100%=total damage, 0%=no damage), read-out: Post-emergence herbicidal activity (percentage phytotoxicity) LOLPE POST
[26] = pre-emergence, 480 h, 250 g/ha, pre-emergence, 20 DAA, visual assessment (100%=total damage, 0%=no damage), read-out: Pre-emergence herbicidal activity (percentage phytotoxicity) LOLPE PRE

Compound | pest or weed control at 250 g/ha (Avena fatua (AVEFA); [3]) | pest or weed control at 250 g/ha (Avena fatua (AVEFA); [4]) | pest or weed control at 250 g/ha [1, 5] | pest or weed control at 250 g/ha [1, 6] | pest or weed control at 250 g/ha [2, 7] | pest or weed control at 250 g/ha [2, 8] | pest or weed control at 250 g/ha (Lolium perenne (LOLPE); [9]) | pest or weed control at 250 g/ha (Lolium perenne (LOLPE); [10]) | pest or weed control at 250 g/ha (Avena fatua (AVEFA); [11]) | pest or weed control at 250 g/ha (Avena fatua (AVEFA); [12]) | pest or weed control at 250 g/ha [1, 13] | pest or weed control at 250 g/ha [1, 14] | pest or weed control at 250 g/ha [2, 15] | pest or weed control at 250 g/ha [2, 16] | pest or weed control at 250 g/ha (Lolium perenne (LOLPE); [17]) | pest or weed control at 250 g/ha (Lolium perenne (LOLPE); [18]) | further results
CC#Cc1cc(C)c(C2C(=O)CC(CC(=O)NCC(C)(C)C)C2=O)c(CC)c1 (stereo not shown) [Compound A53] | 90% | 80% | 100% | 90% | 100% | 100% | 90% | 90% | – | – | – | – | – | – | – | – | –
Cc1cc(-c2ncc(F)cn2)cc(C)c1C1C(=O)CC(CC(=O)NCc2cccc(F)c2)C1=O (stereo not shown) [Compound B264] | – | – | – | – | – | – | – | – | 100% | 80% | 100% | 100% | 100% | 100% | 100% | 90% | –
Cc1cc(-c2ncc(Cl)cc2F)cc(C)c1C1C(=O)CC(CC(=O)NCc2cnc(Cl)s2)C1=O (stereo not shown) [Compound A128] | 100% | 80% | 100% | 80% | 100% | 100% | 100% | 90% | – | – | – | – | – | – | – | – | –
C/C=C/c1cc(C)c(C2C(=O)CC(CC(=O)N(C)C(C)(C)C)C2=O)c(CC)c1 (stereo not shown) [Compound B274] | – | – | – | – | – | – | – | – | 100% | 50% | 100% | 70% | 100% | 70% | 90% | 70% | –
Cc1cc(-c2ccc(C#N)cc2)cc(C)c1C1C(=O)CC(CC(=O)NC(C)C)C1=O (stereo not shown) [Compound A37] | 100% | 90% | 80% | 90% | 90% | 100% | 80% | 100% | – | – | – | – | – | – | – | – | –
CC#Cc1cc(C)c(C2C(=O)CC(CC(=O)NCC(C)C)C2=O)c(C)c1 (stereo not shown) [Compound A30] | 100% | 100% | 100% | 100% | 100% | 100% | 100% | 100% | – | – | – | – | – | – | – | – | –
C#CCN(C)C(=O)CC1CC(=O)C(c2c(C)cc(-n3cc(Cl)cn3)cc2C)C1=O (stereo not shown) [Compound B230] | – | – | – | – | – | – | – | – | 100% | 90% | 100% | 90% | 100% | 100% | 90% | 90% | –
Cc1cc(OCC(F)(F)F)cc(C)c1C1C(=O)CC(CC(=O)NCc2cccc(Cl)c2)C1=O (stereo not shown) [Compound B204] | – | – | – | – | – | – | – | – | 100% | 80% | 100% | 90% | 100% | 90% | 90% | 90% | –
Cc1cc(-c2ncc(C#N)cn2)cc(C)c1C1C(=O)CC(CC(=O)NC(C)(C)C)C1=O (stereo not shown) [Compound B270] | – | – | – | – | – | – | – | – | 100% | 90% | 100% | 100% | 100% | 100% | 90% | 100% | –
CCNC(=O)CC1CC(=O)C(c2c(C)cc(-c3ncc(Br)cn3)cc2C)C1=O (stereo not shown) [Compound B282] | – | – | – | – | – | – | – | – | 100% | 100% | 100% | 100% | 100% | 100% | 100% | 100% | –
CCN(C)C(=O)CC1CC(=O)C(c2c(C)cc(-n3cc(Cl)cn3)cc2C)C1=O (stereo not shown) [Compound B228] | – | – | – | – | – | – | – | – | 100% | 90% | 100% | 100% | 100% | 90% | 100% | 100% | –
Cc1cc(C)c(C2C(=O)CC(CC(=O)NCc3cccc(F)c3)C2=O)c(C)c1 (stereo not shown) [Compound B21] | – | – | – | – | – | – | – | – | – | – | – | – | – | – | – | – | pest or weed control at 250 g/ha (Avena fatua (AVEFA); [19]): 90%; pest or weed control at 250 g/ha (Avena fatua (AVEFA); [20]): 50%; pest or weed control at 250 g/ha [1, 21]: 80%; pest or weed control at 250 g/ha [1, 22]: 80%; pest or weed control at 250 g/ha [2, 23]: 90%; pest or weed control at 250 g/ha [2, 24]: 100%; pest or weed control at 250 g/ha (Lolium perenne (LOLPE); [25]): 90%; pest or weed control at 250 g/ha (Lolium perenne (LOLPE); [26]): 100%
Cc1cc(-c2ncc(F)cc2F)cc(C)c1C1C(=O)CC(CC(=O)NCc2ccc(Br)cc2)C1=O (stereo not shown) [Compound B100] | – | – | – | – | – | – | – | – | – | – | – | – | – | – | – | – | pest or weed control at 250 g/ha (Avena fatua (AVEFA); [19]): 100%; pest or weed control at 250 g/ha (Avena fatua (AVEFA); [20]): 60%; pest or weed control at 250 g/ha [1, 21]: 100%; pest or weed control at 250 g/ha [1, 22]: 80%; pest or weed control at 250 g/ha [2, 23]: 100%; pest or weed control at 250 g/ha [2, 24]: 100%; pest or weed control at 250 g/ha (Lolium perenne (LOLPE); [25]): 100%; pest or weed control at 250 g/ha (Lolium perenne (LOLPE); [26]): 90%
COCCNC(=O)CC1CC(=O)C(c2c(C)cc(-n3cc(Cl)cn3)cc2C)C1=O (stereo not shown) [Compound A77] | 90% | 80% | 90% | 80% | 100% | 100% | 80% | 80% | – | – | – | – | – | – | – | – | –
